# Results reported in article PMC8309073, “Collagenase and Tyrosinase Inhibitory Effect of Isolated Constituents from the Moss Polytrichum formosum” (Plants, 2021).
# pIC50: −log10 of the molar value.
# Legend:
# collagenase [1] = assay: FALGPA hydrolysis assay (compound purity […]); also retained in Target Binding ultrafiltration UHPLC-MS (RA […]); assay type: biochemical, Hathewaya histolytica
# collagenase [2] = assay: FALGPA hydrolysis assay; also retained in Target Binding ultrafiltration UHPLC-MS (RA […]); assay type: biochemical, Hathewaya histolytica
# mushroom tyrosinase = biological target: T1, mushroom tyrosinase (Agaricus bisporus, UniProt C7FF04); assay: spectrophotometric L-tyrosine to dopachrome assay, […] nm; also retained in Target Binding (RA […], reference); assay type: biochemical
# T1 construct: gene PPO3; T3824-250KU, Sigma-Aldrich
# T1 sequence (C7FF04 2-392): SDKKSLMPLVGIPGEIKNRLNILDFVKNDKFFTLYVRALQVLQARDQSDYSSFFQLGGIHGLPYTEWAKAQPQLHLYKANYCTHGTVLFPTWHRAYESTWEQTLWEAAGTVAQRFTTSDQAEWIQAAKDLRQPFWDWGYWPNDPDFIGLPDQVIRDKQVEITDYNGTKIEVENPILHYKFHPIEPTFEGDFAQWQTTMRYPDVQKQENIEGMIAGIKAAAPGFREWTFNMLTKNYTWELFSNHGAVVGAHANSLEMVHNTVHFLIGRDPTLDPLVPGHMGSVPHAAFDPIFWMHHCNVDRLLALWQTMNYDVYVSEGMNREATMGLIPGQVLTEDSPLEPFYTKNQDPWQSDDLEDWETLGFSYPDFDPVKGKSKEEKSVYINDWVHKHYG
SMILES,pIC50 (collagenase [1]),pIC50 (collagenase [2]),inhibition at 200 µM (mushroom tyrosinase) [%]
"O=C1C[C@@H]2c3ccccc3O[C@H]3c4ccc(O)c(O)c4-c4c(O)cc(O)c1c4[C@H]23 [compound 2, nor-ohioensin D]",3.78,,
"O=C1C[C@@H]2c3ccccc3O[C@H]3c4cc(O)ccc4-c4c(O)cc(O)c1c4[C@H]23 [compound 1, ohioensin A]",,4.14,30
